A short description of data set [1]: Pharmacokinetic study of ginsenosides in healthy humans after repeated oral RGE with or without LAB. It counts as in vivo, human. As to conditions: for Cmax / MRT / Tmax / AUC: male, in vivo, human plasma, mean ± SD, n = 5; for Cmax: read-out: Cmax; for MRT: read-out: MRT; for Tmax: read-out: Tmax; for AUC: AUC 0 to 24 h, read-out: AUC.
Another data set has as its target T1, P-gp (Homo sapiens, UniProt P08183).
T1 construct: host or cells: LLC-PK1-P-gp cells (passage no. 25–28)
Put plainly: Transport of ginsenosides in P-gp-overexpressing LLC-PK1-P-gp cells. The data set is classed as in vitro ADME.

The nature of data set [2]: Transport (permeability) of ginsenosides in CaCo-2 cell monolayers. The data set is classed as in vitro ADME. The note with it: human, Caco-2, CaCo-2 cell monolayers, 50 µM; B to A Papp divided by A to B Papp; read-out: Efflux ratio (ER). In general terms: Caco-2 monolayers are a common model of the intestinal barrier.
Setting [3] is: 104.1 mg total ginsenosides/day, RGE group, RGE oral 14 days.

Structures are written as SMILES. “And” between values parts separate entries of the source, which are not always exact repeats. Identical values can stand only once. Like-named read-outs stand apart in the source and are kept apart here.

T1 sequence (P08183 whole entry): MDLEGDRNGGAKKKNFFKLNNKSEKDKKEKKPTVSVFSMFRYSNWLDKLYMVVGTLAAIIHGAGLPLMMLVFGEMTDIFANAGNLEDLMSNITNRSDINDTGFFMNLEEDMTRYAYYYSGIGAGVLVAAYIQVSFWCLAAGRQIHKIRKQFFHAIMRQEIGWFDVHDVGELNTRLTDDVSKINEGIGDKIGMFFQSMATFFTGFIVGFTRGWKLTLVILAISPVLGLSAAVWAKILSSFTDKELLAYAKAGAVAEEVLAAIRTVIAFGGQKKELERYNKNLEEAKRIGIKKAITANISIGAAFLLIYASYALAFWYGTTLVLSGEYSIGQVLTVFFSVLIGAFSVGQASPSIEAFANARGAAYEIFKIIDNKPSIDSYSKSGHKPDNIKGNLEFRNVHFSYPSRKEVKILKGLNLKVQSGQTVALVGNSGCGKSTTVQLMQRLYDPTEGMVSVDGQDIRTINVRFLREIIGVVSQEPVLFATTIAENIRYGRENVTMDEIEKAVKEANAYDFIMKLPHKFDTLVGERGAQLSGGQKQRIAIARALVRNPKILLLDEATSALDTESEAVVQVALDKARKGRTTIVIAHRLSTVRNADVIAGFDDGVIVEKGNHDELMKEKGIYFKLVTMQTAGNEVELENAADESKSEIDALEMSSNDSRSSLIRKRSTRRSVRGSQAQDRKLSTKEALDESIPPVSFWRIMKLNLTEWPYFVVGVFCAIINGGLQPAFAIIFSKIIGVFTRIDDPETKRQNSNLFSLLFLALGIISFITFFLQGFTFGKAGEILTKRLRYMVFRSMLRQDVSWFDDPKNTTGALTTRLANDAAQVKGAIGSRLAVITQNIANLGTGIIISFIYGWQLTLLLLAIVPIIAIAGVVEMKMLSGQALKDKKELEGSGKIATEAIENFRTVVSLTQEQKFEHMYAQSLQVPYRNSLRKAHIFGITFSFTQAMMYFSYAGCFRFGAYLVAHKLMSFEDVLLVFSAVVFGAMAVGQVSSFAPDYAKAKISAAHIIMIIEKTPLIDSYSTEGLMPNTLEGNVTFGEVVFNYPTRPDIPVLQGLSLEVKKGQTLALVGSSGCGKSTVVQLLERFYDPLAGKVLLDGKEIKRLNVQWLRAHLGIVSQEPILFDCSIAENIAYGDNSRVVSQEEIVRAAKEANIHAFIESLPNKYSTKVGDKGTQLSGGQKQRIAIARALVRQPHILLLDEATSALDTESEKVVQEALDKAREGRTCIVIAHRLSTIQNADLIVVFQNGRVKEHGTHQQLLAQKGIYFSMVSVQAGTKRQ

A word on the Cmax: it is the peak of the concentration-time curve. One may read the MRT as the average time that molecules of a dose stay in the body. As usually defined, the Tmax is the time at which the peak concentration occurs. The term AUC denotes the area under the concentration-time curve, a measure of exposure. `CC(C)=CCC[C@](C)(O)[C@H]1CC[C@]2(C)[C@@H]1[C@H](O)C[C@@H]1[C@@]3(C)CC[C@H](O[C@@H]4O[C@H](CO)[C@@H](O)[C@H](O)[C@H]4O)C(C)(C)[C@@H]3CC[C@]12C` [GRh2, ginsenoside Rh2]: in data set [1] (RGE + LAB group compared to RGE group, humans, 2 weeks), the “Fold increase of plasma AUC after LAB supplementation” value is 2.1 fold and 2.7 fold. In addition, in data set [1] (RGE + LAB group versus RGE group, humans, result in words), the “Change of AUC / pharmacokinetic parameters by RGE and LAB co-administration” value was “significantly increased”. In data set [1] (setting [3]), the Cmax was 2.1 ± 0.8 ng/mL, the MRT worked out at 17 ± 9.3 h and the time of peak concentration (Tmax) was found to be 10.7 ± 0.6 h. Moreover, the AUC in data set [1] (RGE + LAB group, RGE plus LAB (1 billion CFU/2 g) once daily oral 14 days) amounted to 57.1 ± 22 ng·h/mL. Besides, in data set [1] (RGE + LAB group, oral 14 days), the Cmax is 13.9 ± 12.8 ng/mL, the MRT came to 10.2 ± 1.6 h and the Tmax worked out at 10.6 ± 1.8 h. Further, the AUC in data set [1] (RGE group, RGE once daily oral 14 days (104.1 mg total ginsenosides/day)) amounted to 21.3 ± 10.1 ng·h/mL. Further, at P-gp (P-gp-mediated B to A transport in LLC-PK1-P-gp cells), the “CLint (intrinsic clearance)” value worked out at 502 µL/min. Also, the efflux ratio at 20 μM on P-gp (pig, LLC-PK1, LLC-PK1-P-gp cells, 20 μM, B to A Papp divided by A to B Papp, read-out: ER) came out at 18. The Papp A→B at 20 μM at P-gp (pig, LLC-PK1-P-gp cells, 20 μM, mean ± SD, n = 3, read-out: A to B permeability) stood at 0.08 ± 0.01 ×10⁻⁶ cm/s. Further, the Papp B→A at 20 μM at P-gp (pig, LLC-PK1-P-gp cells, 20 μM, mean ± SD, n = 3, read-out: B to A permeability) was 1.39 ± 0.13 ×10⁻⁶ cm/s. The efflux ratio at 50 µM in data set [2] worked out at 2.3.

The record behind these values is article PMC9775652, “Concomitant Administration of Red Ginseng Extract with Lactic Acid Bacteria Increases the Plasma Concentration of Deglycosylated Ginsenosides in Healthy Human Subjects” (Biomolecules, 2022).
